Data reported in ChEMBL document CHEMBL1201862, “PubChem BioAssay data set” (2004).
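Following 48 hours of exposure in 96-well plates, responses at five concentrations were used to interpolate endpoints linearly. The concentration for 50% growth inhibition is given as GI50.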 Activity calls are given as the source filed them. Cut-off read from the data, not from the text of the source: active = GI50 up to about 1.1 µM and inactive = higher.

Columns and labels:
Assay in all cases: DTP human tumour cell line panel, 48 h
[1] = system: BT-549
[2] = system: K562
[3] = system: M14
[4] = system: OVCAR-8
[5] = system: HOP-62
[6] = system: HL-60
[7] = system: MOLT-4
[8] = system: SK-MEL-2
[9] = system: A549
[10] = system: HT-29
[11] = system: IGROV-1
[12] = system: SK-MEL-28
[13] = system: UACC-257
[14] = system: HCT-116
[15] = system: SNB-19
[16] = system: OVCAR-4
[17] = system: CCRF-CEM
[18] = system: HOP-92
[19] = system: KM12
[20] = system: RXF 393

Measured: GI50

CC1(C)OCC(COC(=O)NCn2cc(-c3ccccc3)nn2)O1 (configuration not stated)
inactive: [1] > 100 µM | [2] > 100 µM | [3] > 100 µM | [4] > 100 µM | [5] > 100 µM | [6] > 100 µM | [7] > 100 µM | [8] > 100 µM | [9] > 100 µM | [10] > 100 µM | [11] > 100 µM | [12] > 100 µM | [13] > 100 µM | [14] > 100 µM | [15] > 100 µM | [16] > 100 µM | [17] > 100 µM | [18] > 100 µM | [19] > 100 µM

O=C(O)c1nc2ccccc2nc1NCc1ccc(F)cc1
inactive: [1] > 100 µM | [2] 56.1 µM | [3] > 100 µM | [4] 53.2 µM | [5] > 100 µM | [6] 45.8 µM | [7] 67 µM | [8] 94.4 µM | [9] 57.7 µM | [10] 69.5 µM | [11] 46.6 µM | [20] > 100 µM | [12] > 100 µM | [13] > 100 µM | [14] 41.6 µM | [15] 47.5 µM | [17] 50.5 µM | [18] 95.1 µM | [19] 47.1 µM

Clc1ccc(/C=C/c2nc3ccccc3s2)cc1Cl
inactive: [1] 30.1 µM | [2] > 100 µM | [3] 36.5 µM | [4] 47.8 µM | [5] 22.9 µM | [6] 82 µM | [7] > 100 µM | [8] > 10 µM | [9] 57.8 µM | [10] > 100 µM | [11] 16.9 µM | [12] > 100 µM | [13] > 100 µM | [14] 19.5 µM | [15] 30.5 µM | [16] 15.6 µM | [17] > 100 µM | [18] 18.9 µM | [19] 81.1 µM

O=C(Nc1ccc(Cl)cc1)c1cc(S(=O)(=O)N2CCNNC2=O)c(S)cc1Cl
inactive: [1] 35.7 µM | [2] > 100 µM | [3] > 100 µM | [4] > 100 µM | [6] > 100 µM | [7] > 100 µM | [8] > 100 µM | [9] > 100 µM | [11] > 100 µM | [20] 17.4 µM | [12] > 100 µM | [13] > 100 µM | [14] > 100 µM | [15] > 100 µM | [16] > 100 µM | [17] 97.7 µM | [18] 28.8 µM | [19] > 100 µM

CC1=C2C(=O)NN=C2CCN1c1ccc(Br)cc1
inactive: [1] 3.14 µM | [3] > 100 µM | [4] > 100 µM | [5] > 100 µM | [6] 41.3 µM | [7] 9.62 µM | [8] > 100 µM | [9] > 100 µM | [10] > 100 µM | [11] > 100 µM | [12] > 100 µM | [13] > 100 µM | [14] > 100 µM | [15] > 100 µM | [16] > 100 µM | [17] 2.2 µM | [18] > 100 µM | [19] > 100 µM

CCCC[C@@H]1CCN2C[C@@H](O)[C@@H](O)[C@@H]2[C@H]1O
inactive: [1] > 100 µM | [2] > 100 µM | [3] > 100 µM | [4] > 100 µM | [6] > 100 µM | [7] > 100 µM | [8] > 100 µM | [9] > 100 µM | [10] > 100 µM | [11] > 100 µM | [20] > 100 µM | [12] > 100 µM | [13] > 100 µM | [14] > 100 µM | [15] > 100 µM | [16] > 100 µM | [17] > 100 µM | [18] > 100 µM | [19] > 100 µM

Cc1nn2c(C(=O)N/N=C/c3ccc([N+](=O)[O-])cc3)c(C)nc2s1
inactive: [1] > 100 µM | [2] 94.2 µM | [3] > 100 µM | [4] > 100 µM | [5] 46.5 µM | [6] > 100 µM | [7] 41 µM | [9] > 100 µM | [10] > 100 µM | [11] > 100 µM | [20] > 100 µM | [12] > 100 µM | [13] > 100 µM | [14] > 100 µM | [15] 45.9 µM | [16] > 100 µM | [17] > 100 µM | [18] > 100 µM | [19] > 100 µM

COc1cccc(C2c3cc4c(cc3OC(O)C2C)OCO4)c1OC (configuration not stated)
inactive: [1] 10.1 µM | [2] 2.7 µM | [3] 11.1 µM | [4] 3.06 µM | [5] 17.4 µM | [6] 1.87 µM | [7] 2.16 µM | [8] 5.2 µM | [9] 4.02 µM | [10] 3.66 µM | [11] 4.65 µM | [20] 3.4 µM | [12] 13.3 µM | [13] 7.18 µM | [14] 2.35 µM | [15] 11.2 µM | [17] 2.61 µM | [18] 1.66 µM | [19] 5.04 µM

CSc1ccc(/C=C/C(=O)c2nc3ccccc3[nH]2)cc1
inactive: [1] 14.8 µM | [2] 4.41 µM | [3] 15.9 µM | [4] 37.2 µM | [5] 24.3 µM | [6] 12.1 µM | [7] 3.02 µM | [8] 18.1 µM | [9] 18.2 µM | [10] 15.7 µM | [11] 30.3 µM | [12] 31.6 µM | [13] 20.6 µM | [14] 12.7 µM | [15] 16.1 µM | [16] 14.1 µM | [17] 3.49 µM | [18] 77.1 µM | [19] 14.5 µM

CCC(=O)NC(Nc1cccc(F)c1C)(C(F)(F)F)C(F)(F)F
inactive: [1] > 100 µM | [2] > 100 µM | [3] > 100 µM | [4] > 100 µM | [5] > 100 µM | [6] > 100 µM | [7] > 100 µM | [8] > 100 µM | [9] > 100 µM | [10] > 100 µM | [11] > 100 µM | [20] 3.88 µM | [12] > 100 µM | [13] > 100 µM | [14] > 100 µM | [15] > 100 µM | [17] > 100 µM | [18] > 100 µM | [19] > 100 µM

Nn1c(Cc2ccc([N+](=O)[O-])cc2)n[nH]c1=O
inactive: [1] > 100 µM | [2] > 100 µM | [3] > 100 µM | [4] > 100 µM | [5] > 100 µM | [6] > 100 µM | [7] > 100 µM | [8] > 100 µM | [9] > 100 µM | [10] > 100 µM | [11] > 100 µM | [12] > 100 µM | [13] > 100 µM | [14] > 100 µM | [15] > 100 µM | [16] > 100 µM | [17] > 100 µM | [18] > 100 µM | [19] > 100 µM
